Test results from patent US20210115104A1, “AMYLIN ANALOGUES” (Zealand Pharma A/S, priority 2015, published 2021).
*1 amine or outer side, *2 acyl side, *3 side chain or, on linkers, in order; H or OH if unused. Where a SMILES comes first, the peptide text is derived from it. Bridges are numbered along the chain shown (N, C = ends). [ ]: non-standard residue; d: D form. The star is where a group is joined. C20 diacid = O=C(O)CCCCCCCCCCCCCCCCCCC(=O)*; γGlu = O=C(O)[C@H](CCC(=O)[*:2])N[*:1]; Hyp = O=C(O)[C@@H]1C[C@@H](O)CN1; NMeI = CC[C@H](C)[C@H](NC)C(=O)O; Aad = N[C@@H](CCCC(=O)O)C(=O)O; Sar = CNCC(=O)O

What was measured:
[1] = Assessment of physical stability (Thioflavin T fibrillation); type: physicochemical; set-up: key: FND = fibrillation not detected; FD = fibrillation detected; conditions: 1 mg/ml, 40° C., ThT; for Fibrillation pH 4.0 (Ac): 50 mM acetate buffer pH 4.0, 96 hours; for Fibrillation pH 7.0 (His): 50 mM histidine buffer pH 7.0, 96 hours; for Fibrillation pH 7.0 (Phos.): 50 mM phosphate buffer pH 7.0, 96 hours
Experimental: Solutions containing (i) 1 mg/ml of test peptide, 40 μM ThT and 50 mM phosphate (Ph) buffer (pH 7.0), (ii) 1 mg/ml of test peptide, 40 μM ThT and 50 mM histidine (His) buffer (pH 7.0), and (iii) 1 mg/ml of test peptide, 40 μM ThT and 50 mM acetate (Ac) buffer (pH 4.0), were loaded in a 96-well black fluorescence plate (clear bottom) in triplicate. Data were collected at fixed intervals of 10 min, each preceded by 300 s of automixing (agitation), over a period of 96 hours at 40° C. Physical stability, expressed as lag-time of fibril formation (in hours), was defined as the intersection between two linear regressions representing the initial stable phase and the growth phase.

[2] = Assessment of chemical stability (RP-HPLC normalized purity); type: physicochemical; conditions: for Normalized purity after 7 days, 40° C., pH 4: pH 4, 0.2 mg/ml; for Normalized purity after 7 days, 40° C., pH 4 / Normalized purity after 7 days, 40° C., pH 6 / Normalized purity after 7 days, 40° C., pH 7.5 / Normalized purity after 7 days, 40° C., pH 9: Table 1; for Normalized purity after 7 days, 40° C., pH 6: pH 6, 0.2 mg/ml; for Normalized purity after 7 days, 40° C., pH 7.5: pH 7.5, 0.2 mg/ml; for Normalized purity after 7 days, 40° C., pH 9: pH 9, 0.2 mg/ml
Experimental: Samples of each test peptide were dissolved in MilliQ™ water, and the pH of the solution was adjusted to pH 4, pH 6, pH 7.5 or pH 9, respectively, using either HCl or NaOH. The final peptide concentration was 0.2 mg/ml. Samples were placed in glass vials and incubated at 40° C. The samples were analyzed by RP-HPLC on a C8 column with gradient elution using an ammonium formate/water eluent system, or on a C18 column with gradient elution using a trifluoroacetic acid/water eluent system. The area-percentage (area-%) of the main peak after incubation time T=t (relative to time T=0) was determined by UV spectroscopy at 220 nm.
The purity was first determined as follows:
Purity(area-%)=(area of main peak/total area of all peaks)×100.
The purity was then normalized between time points by setting purity at time 0 (T=0) to 100 for each pH value for a given peptide, as follows:
Normalised area-% at time t (T=t)=[area-%(T=t)/area-%(T=0)]×100.
The normalized purity values in Table 1 were determined after 7 days of incubation.
The chemical stability assessment described in Example 6 was repeated for four pairs of compounds, each differing only by the presence or absence of an Asn-Asn (N—N) doublet at positions 21 and 22.

| Compound | Fibrillation pH 4.0 (Ac) [1] | Fibrillation pH 7.0 (His) [1] | Fibrillation pH 7.0 (Phos.) [1] | Normalized purity after 7 days, 40° C., pH 4 [2] | Normalized purity after 7 days, 40° C., pH 6 [2] | Normalized purity after 7 days, 40° C., pH 7.5 [2] | Normalized purity after 7 days, 40° C., pH 9 [2] | Normalized purity pH 4 (Table 5) ([2]; pH 4, repeat of Example 6 for pairs with/without Asn-Asn at 21-22) | Normalized purity pH 6 (Table 5) ([2]; pH 6, repeat of Example 6 for pairs with/without Asn-Asn at 21-22) | Normalized purity pH 7.5 (Table 5) ([2]; pH 7.5, repeat of Example 6 for pairs with/without Asn-Asn at 21-22) | Normalized purity pH 9 (Table 5) ([2]; pH 9, repeat of Example 6 for pairs with/without Asn-Asn at 21-22) |
| --- | --- | --- | --- | --- | --- | --- | --- | --- | --- | --- | --- |
| CC[C@H](C)[C@@H](C(=O)N[C@@H](CC(C)C)C(=O)N[C@@H](CO)C(=O)N[C@@H](CO)C(=O)N[C@H](C(=O)N[C@@H](CCC(=O)O)C(=O)N[C@H](C(=O)NCC(=O)N[C@@H](CO)C(=O)N[C@@H](CC(N)=O)C(=O)N[C@H](C(=O)N1C[C@H](O)C[C@H]1C(N)=O)[C@@H](C)O)C(C)C)[C@@H](C)O)N(C)C(=O)[C@H](C)NC(=O)CN(C)C(=O)[C@H](Cc1ccccc1)NC(=O)[C@H](CO)NC(=O)[C@H](CO)NC(=O)[C@H](CCCNC(=N)N)NC(=O)[C@H](CCC(=O)O)NC(=O)[C@H](CC(C)C)NC(=O)[C@H](Cc1ccccc1)NC(=O)[C@H](Cc1c[nH]cn1)NC(=O)[C@H](C)NC(=O)[C@H](CC(C)C)NC(=O)[C@H](CCCNC(=N)N)NC(=O)[C@H](CCC(=O)O)NC(=O)[C@@H](NC(=O)[C@H](C)NC(=O)[C@@H]1CSSC[C@H](NC(=O)[C@H](CCCNC(=N)N)NC(=O)CC[C@H](NC(=O)CCCCCCCCCCCCCCCCCCC(=O)O)C(=O)O)C(=O)NCC(=O)N[C@@H]([C@@H](C)O)C(=O)N[C@@H](C)C(=O)N[C@@H]([C@@H](C)O)C(=O)N1)[C@@H](C)O [Compound 8, [19CD]-isoGlu-R-C( )-GTAT-C( )-ATERLAHFLERSSF-Gly(Me)-A-Ile(Me)-LSSTEVGSNT-Hyp-NH2] ({C20 diacid-γGlu}-RCGTATCATERLAHFLERSSF[Sar]A[NMeI]LSSTEVGSNT[Hyp]-NH2; disulfide 2-7) | FND | FND | FND | A (A = >90%) | B (B = 70-90%) | A (A = >90%) | A (A = >90%) | – | – | – | – |
| CC[C@H](C)[C@@H](C(=O)N[C@@H](CC(C)C)C(=O)N[C@@H](CO)C(=O)N[C@@H](CO)C(=O)N[C@H](C(=O)N[C@@H](CCC(=O)O)C(=O)N[C@H](C(=O)NCC(=O)N[C@@H](CO)C(=O)N[C@@H](CCCC(=O)O)C(=O)N[C@H](C(=O)N1C[C@H](O)C[C@H]1C(N)=O)[C@@H](C)O)C(C)C)[C@@H](C)O)N(C)C(=O)[C@H](C)NC(=O)CN(C)C(=O)[C@H](Cc1ccccc1)NC(=O)[C@H](CO)NC(=O)[C@H](CO)NC(=O)[C@H](CCCNC(=N)N)NC(=O)[C@@H](NC(=O)[C@H](CC(C)C)NC(=O)[C@H](Cc1ccccc1)NC(=O)[C@H](Cc1c[nH]cn1)NC(=O)[C@H](C)NC(=O)[C@H](CC(C)C)NC(=O)[C@H](CCCNC(=N)N)NC(=O)[C@H](CCC(=O)O)NC(=O)[C@@H](NC(=O)[C@H](C)NC(=O)[C@@H]1CSSC[C@H](NC(=O)[C@H](CCCNC(=N)N)NC(=O)CC[C@H](NC(=O)CCCCCCCCCCCCCCCCCCC(=O)O)C(=O)O)C(=O)NCC(=O)N[C@@H]([C@@H](C)O)C(=O)N[C@@H](C)C(=O)N[C@@H]([C@@H](C)O)C(=O)N1)[C@@H](C)O)[C@@H](C)O [Compound 12, [19CD]-isoGlu-R-C( )-GTAT-C( )-ATERLAHFLTRSSF-Gly(Me)-A-Ile(Me)-LSSTEVGS-Aad-T-Hyp-NH2] ({C20 diacid-γGlu}-RCGTATCATERLAHFLTRSSF[Sar]A[NMeI]LSSTEVGS[Aad]T[Hyp]-NH2; disulfide 2-7) | FND | FD | FD | A (A = >90%) | A (A = >90%) | B (B = 70-90%) | B (B = 70-90%) | – | – | – | – |
| CC[C@H](C)[C@@H](C(=O)N[C@@H](CC(C)C)C(=O)N[C@@H](CO)C(=O)N[C@@H](CO)C(=O)N[C@H](C(=O)N[C@@H](CCC(=O)O)C(=O)N[C@H](C(=O)NCC(=O)N[C@@H](CO)C(=O)N[C@@H](CCC(=O)O)C(=O)N[C@H](C(=O)N1CCC[C@H]1C(N)=O)[C@@H](C)O)C(C)C)[C@@H](C)O)N(C)C(=O)[C@H](C)NC(=O)CN(C)C(=O)[C@H](Cc1ccccc1)NC(=O)[C@H](CCCNC(=N)N)NC(=O)[C@H](Cc1c[nH]cn1)NC(=O)[C@H](CC(C)C)NC(=O)[C@H](Cc1ccccc1)NC(=O)[C@H](Cc1c[nH]cn1)NC(=O)[C@H](C)NC(=O)[C@H](CC(C)C)NC(=O)[C@H](CCCNC(=N)N)NC(=O)[C@H](CCC(N)=O)NC(=O)[C@@H](NC(=O)[C@H](C)NC(=O)[C@@H]1CSSC[C@H](NC(=O)[C@H](CCCNC(=N)N)NC(=O)CC[C@H](NC(=O)CCCCCCCCCCCCCCCCCCC(=O)O)C(=O)O)C(=O)N[C@@H](CC(N)=O)C(=O)N[C@@H]([C@@H](C)O)C(=O)N[C@@H](C)C(=O)N[C@@H]([C@@H](C)O)C(=O)N1)[C@@H](C)O [Compound 14, [19CD]-isoGlu-R-C( )-NTAT-C( )-ATQRLAHFLHRF-Gly(Me)-A-Ile(Me)-LSSTEVGSETP-NH2] ({C20 diacid-γGlu}-RCNTATCATQRLAHFLHRF[Sar]A[NMeI]LSSTEVGSETP-NH2; disulfide 2-7) | FND | FD | FND | A (A = >90%) | A (A = >90%) | A (A = >90%) | A (A = >90%) | – | – | – | – |
| CC[C@H](C)[C@H](NC(=O)[C@@H]1CCCN1C(=O)CNC(=O)[C@H](Cc1ccccc1)NC(=O)[C@H](CC(N)=O)NC(=O)[C@H](CC(N)=O)NC(=O)[C@H](CO)NC(=O)[C@H](CO)NC(=O)[C@H](Cc1c[nH]cn1)NC(=O)[C@H](Cc1c[nH]cn1)NC(=O)[C@H](CC(C)C)NC(=O)[C@H](Cc1ccccc1)NC(=O)[C@H](CCC(=O)O)NC(=O)[C@H](C)NC(=O)[C@H](CC(C)C)NC(=O)[C@H](CCCNC(=N)N)NC(=O)[C@H](CCC(N)=O)NC(=O)[C@@H](NC(=O)[C@H](C)NC(=O)[C@@H]1CSSC[C@H](NC(=O)[C@H](CCCNC(=N)N)NC(=O)CC[C@H](NC(=O)CCCCCCCCCCCCCCCCCCC(=O)O)C(=O)O)C(=O)N[C@@H](CC(N)=O)C(=O)N[C@@H]([C@@H](C)O)C(=O)N[C@@H](C)C(=O)N[C@@H]([C@@H](C)O)C(=O)N1)[C@@H](C)O)C(=O)N[C@@H](CC(C)C)C(=O)N1CCC[C@H]1C(=O)N1CCC[C@H]1C(=O)N[C@H](C(=O)N[C@@H](CC(N)=O)C(=O)N[C@H](C(=O)NCC(=O)N[C@@H](CO)C(=O)N[C@@H](CC(N)=O)C(=O)N[C@H](C(=O)N1CCC[C@H]1C(N)=O)[C@@H](C)O)C(C)C)[C@@H](C)O [NN96, N-α-[(S)-4-carboxy-4-(19-carboxynonadecanoylamino)butyryl]-[Arg1, Glu14, His17, Pro37]-pramlintide-NH2, reference compound] ({C20 diacid-γGlu}-RCNTATCATQRLAEFLHHSSNNFGPILPPTNVGSNTP-NH2; disulfide 2-7) | FND | FD | FD | A (A = >90%) | A (A = >90%) | B (B = 70-90%) | B (B = 70-90%) | A (A = >90%) | A (A = >90%) | B (B = 70-90%) | B (B = 70-90%) |
